From ChEMBL document CHEMBL3046554, “Investigating the mode of action of sulfoxaflor: a fourth-generation neonicotinoid” (Pest Manag Sci, 2013)
Converted amounts (≈) assume the structure as drawn. The source made the active and inactive calls. No cut-off for these calls is given here.

Columns and labels:
[1] = test system: Myzus persicae; assay: whole plant or invertebrate; type: functional; conditions: 4106A, in Brassica rapa, 72 h
Description: Insecticidal activity against Myzus persicae 4106A (green peach aphid) fed on compound treated chinese cabbage discs after 72 hr

[2] = test system: Myzus persicae; assay: Displacement of [3H]-methyl-SFX from nAChR in Myzus persicae (green peach aphid) 4106A membrane at 1 ppm after 70 min
[3] = test system: Myzus persicae; assay: Insecticidal activity against neonicotinoid-resistant Myzus persicae FRC-P (green peach aphid) fed on compound treated chinese cabbage discs after 72 hr; type: functional; conditions: in Brassica rapa
[4] = test system: Myzus persicae; assay: Binding affinity to nAChR in neonicotinoid-resistant Myzus persicae FRC-P (green peach aphid) membrane at 0.05 to 16 nM after 70 min; conditions: tested as the 3H-labelled form
[5] = test system: Myzus persicae; assay: Ratio of Ki for [3H]IMD displacement to [3H]-methyl-SFX displacement from nAChR in Myzus persicae 4106A (green peach aphid) membrane; conditions: tested as the 3H-labelled form

| SMILES | LC50 [1] | LC50 [3] | other results |
| --- | --- | --- | --- |
| CS(=O)(Cc1cnc(Cl)s1)=NC#N (stereo unspecified) | 14.4 µg/mL (≈ 61.2 µM) | – | – |
| N#Cc1nn(-c2c(Cl)cc(C(F)(F)F)cc2Cl)c(N)c1[S+]([O-])C(F)(F)F (stereo unspecified) | – | – | Activity [2]: 30% |
| O=[N+]([O-])/N=C1\NCCN1Cc1ccc(Cl)nc1 [IMIDACLOPRID] | 0.1 µg/mL (≈ 0.391 µM) | 108 µg/mL (≈ 422 µM) | – |
| CS(=O)(Cc1ccc(C(F)(F)Cl)nc1)=NC#N (stereo unspecified) | 9.6 µg/mL (≈ 34.3 µM) | – | – |
| CC(c1ccc(Cl)nc1)S(C)(=O)=NC#N (stereo unspecified) | 1.4 µg/mL (≈ 5.74 µM) | – | – |
| CC[C@H](C)[C@H]1O[C@]2(C=C[C@@H]1C)C[C@@H]1C[C@@H](C/C=C(\C)[C@@H](O[C@H]3C[C@H](OC)[C@@H](O[C@H]4C[C@H](OC)[C@@H](O)[C@H](C)O4)[C@H](C)O3)[C@@H](C)/C=C/C=C3\CO[C@@H]4[C@H](O)C(C)=C[C@@H](C(=O)O1)[C@]34O)O2.CO[C@H]1C[C@H](O[C@H]2[C@H](C)O[C@@H](O[C@@H]3/C(C)=C/C[C@@H]4C[C@@H](C[C@]5(C=C[C@H](C)[C@@H](C(C)C)O5)O4)OC(=O)[C@@H]4C=C(C)[C@@H](O)[C@H]5OC/C(=C\C=C\[C@@H]3C)[C@]54O)C[C@@H]2OC)O[C@@H](C)[C@@H]1O | – | – | Activity [2]: -6% |
| CN/C(=N\[N+](=O)[O-])NCc1cnc(Cl)s1 [CLOTHIANIDINE] | 0.3 µg/mL (≈ 1.2 µM) | 904 µg/mL (≈ 3620 µM) | – |
| CC(c1ccc(C(F)(F)F)nc1)S(C)(=O)=NC#N (stereo unspecified) [SULFOXAFLOR] | 0.08 µg/mL (≈ 0.289 µM) | 4.3 µg/mL (≈ 15.5 µM) | – |
| CN/C(=N/CC1CCOC1)N[N+](=O)[O-] (stereo unspecified) [DINOTEFURAN] | 10 µg/mL (≈ 49.5 µM) | 538 µg/mL (≈ 2660 µM) | – |
| CC(C)(c1ccc(C(F)(F)F)nc1)S(C)(=O)=NC#N (stereo unspecified) | 0.45 µg/mL (≈ 1.54 µM) | – | Activity [4]: inactive; Ratio Ki [5]: 100 |
| CC(c1ccc(C(F)(F)F)nc1)S(C)(=O)=N[N+](=O)[O-] (stereo unspecified) | > 100 µg/mL | – | – |
| CCN(CC)c1nc(C)cc(OP(=S)(OC)OC)n1 | – | – | Activity [2]: 2% |
| CC1(C)[C@H](/C=C(\Cl)C(F)(F)F)[C@@H]1C(=O)O[C@@H](C#N)c1cccc(Oc2ccccc2)c1 (relative stereo) | – | – | Activity [2]: 3% |
| CC(c1ccc(C(F)(F)F)nc1)S(C)(=O)=NC(N)=O (stereo unspecified) | > 100 µg/mL | – | – |
| CNC(=O)c1cc(Cl)cc(C)c1NC(=O)c1cc(Br)nn1-c1ncccc1Cl | – | – | Activity [2]: 8% |
| CNC(=O)O/N=C/C(C)(C)SC | – | – | Activity [2]: 0% |
| CCN(Cc1ccc(Cl)nc1)/C(=C/[N+](=O)[O-])NC [NITENPYRAM] | 1.3 µg/mL (≈ 4.8 µM) | 236 µg/mL (≈ 872 µM) | – |
| C/C(=N\C#N)N(C)Cc1ccc(Cl)nc1 [ACETAMIPRID] | 0.6 µg/mL (≈ 2.69 µM) | 49.3 µg/mL (≈ 221 µM) | – |
| C[C@@](F)(c1ccc(C(F)(F)F)nc1)S(C)(=O)=NC#N (stereo partly specified) | 4.64 µg/mL (≈ 15.7 µM) | – | – |
| Cc1nc(C(F)(F)F)ccc1CS(C)(=O)=NC#N (stereo unspecified) | > 100 µg/mL | – | – |
| CON=CCCC(F)(F)c1ccc(C(C)S(C)(=O)=NC#N)cn1 (stereo unspecified) | > 100 µg/mL | – | – |
| CCC(C)c1cc([N+](=O)[O-])cc([N+](=O)[O-])c1O (stereo unspecified) | – | – | Activity [2]: 13% |
| CN1COCN(Cc2cnc(Cl)s2)/C1=N\[N+](=O)[O-] [THIAMETHOXAM] | 0.5 µg/mL (≈ 1.71 µM) | 108 µg/mL (≈ 370 µM) | – |
| C=CCC(F)(F)c1ccc(C(C)S(C)(=O)=NC#N)cn1 (stereo unspecified) | > 100 µg/mL | – | – |
| N#C/N=C1\SCCN1Cc1ccc(Cl)nc1 [THIACLOPRID] | 0.4 µg/mL (≈ 1.58 µM) | > 1000 µg/mL | – |
| CCS(=O)(=NC#N)C(C)(C)c1ccc(C(F)(F)F)nc1 (stereo unspecified) | 20.5 µg/mL (≈ 67.1 µM) | – | – |
